Results from patent publication US11420975B2, “Substituted imidazo[1,5-a]pyrazines as Bruton's tyrosine kinase inhibitors” (TRANSTHERA SCIENCES (NANJING), INC., priority 2018, dated 2022).

Experiments:
[1] = tested on: TMD-8 xenograft tumor; assay: TMD-8 xenograft tumor model; type: in vivo; settings: intragastric 25 mg/kg once/day
Procedure: (§1) CB17/SCID female mice with serious immune deficiency were purchased from Beijing Vital River Laboratory Animal Technology Co., Ltd. and bred in SPF animal houses. Human TMD-8 cells (Shanghai Junrui-UFBN1682) were cultured in an RPMI 1640 culture medium containing 10% fetal bovine serum, 100 U/mL penicillin and 100 μg/mL streptomycin through monolayer culture in vitro in an incubator (37° C., 5% C02). Routine treatment was performed twice a week for passaging. At a cell saturation of 80%-90% and a required number, the cells were harvested and counted. 0.2 mL (1×10^7) of TMD-8 cells (together with matrigel at a volume ratio of 1:1) were subcutaneously inoculated into the right back of each mouse, and the tumor size could be measured about one week after inoculation. Tumor size was measured using a vernier caliper and tumor volume was calculated using the following formula: tumor volume=(length×width^2)/2.

[2] = tested on: OCI-LY10 xenograft tumor; assay: OCI-LY10 xenograft tumor model; type: in vivo; settings: intragastric 25 mg/kg once/day, day 28
Procedure: as §1, with “OCI-LY10” for “TMD-8”, “Junrui-UFBN0102)” for “Junrui-UFBN1682)”

[3] = tested on: OCI-LY10; assay: In vitro tumor cell proliferation inhibition, OCI-LY10 (CellTiter-Glo); type: cell-based; settings: Homo sapiens; OCI-LY10 cells, 72 h
Procedure: (§2) (1) Method • The tumor cell line (TMD-8/OCY-LY10) was suspended in RPMI1640+FBS10% and cultured in an incubator (37° C., 5% CO2). Cells were passaged periodically, and cells at logarithmic growth phase were collected for plating. • Cell staining was performed with trypan blue and viable cells were counted. • Cell concentration was adjusted to 7000 cells/well with medium. • 90 μL of cell suspension was added to a 96-well plate and cell-free culture medium was added to the blank control wells. • Cells in the 96-well plate were incubated overnight in an incubator (37° C., 5% CO2, 100% relative humidity). • Preparation of 400× compound storage plates: test compounds and reference drug were each dissolved in DMSO and 3× diluted from the highest concentration (400 μM) to the lowest concentration (0.61 μM). • Preparation of 10× compound working solutions: 78 μL of cell culture medium was added to a V-bottom 96-well plate, and 2 μL of the compound was pipetted from the 400× compound storage plate into the 96-well plate. Vehicle control wells and blank control wells were added with 2 μL of DMSO. […] Inhibition rates of compounds at different concentrations were calculated in Excel, followed by plotting the inhibition curves and calculating IC50 values with GraphPad Prism.

[4] = tested on: TMD-8; assay: In vitro tumor cell proliferation inhibition, TMD-8 (CellTiter-Glo); type: cell-based; settings: Homo sapiens, TMD8; TMD-8 cells, 72 h
Procedure: as §2

[5] = biological target: BTK(wt) (Homo sapiens (Human), UniProt Q06187); assay: In vitro inhibitory activity against BTK(wt) enzyme (33P-ATP filter binding); type: biochemical; settings: class symbols
Procedure: (§3) The substrate solution was prepared by adding the substrate poly(Glu, Tyr) sodium salt (Sigma Aldrich, St. Louis, Mo.) to the substrate reaction buffer (20 mM Hepes (pH 7.5), 10 mM MgCl2, 1 mM EGTA, 0.02% Brij35, 0.02 mg/mL BSA, 0.1 mM Na3VO4, 2 mM DTT and 1% DMSO) (final substrate concentration in the reaction solution was 0.2 μM). Test compound was formulated into stock solutions at 10 mM concentration with 100% DMSO, and 3-fold serial dilution for 10 doses was performed in a 384-well cyclic olefin copolymer LDV microplate. […] Test compound in 100% DMSO was then added to the kinase reaction mixture by acoustic liquid transfer technology (Echo 550; nanoliter range) (Labcyte Inc, Sunnyvale, Calif.) and incubated for 20 min at room temperature. 33P-ATP (specific activity 10 μCi/μL) was added to the reaction mixture to initiate the reaction, followed by incubation at room temperature for 2 h. A small portion of the reaction mixture was dropped onto P-81 ion exchange filter paper (Whatman). After washing the unbound phosphate from the filter paper with 0.75% phosphate buffer (three times) and drying, the remaining radioactivity on the filter paper was measured. The kinase activity was expressed as the percentage of the remaining kinase activity in the test sample to the kinase activity in the vehicle (dimethyl sulfoxide) blank control. IC50 values were calculated by curve fitting the data obtained using Prism (GraphPad Software).

[6] = biological target: BTK(C481S) (Homo sapiens (Human), UniProt Q06187, C481S); assay: In vitro inhibitory activity against BTK(C481S) enzyme (33P-ATP filter binding); type: biochemical; settings: class symbols; read-out: IC50 BTK(C48IS)
Procedure: as §3

Sequence of BTK(wt) (Q06187 whole entry): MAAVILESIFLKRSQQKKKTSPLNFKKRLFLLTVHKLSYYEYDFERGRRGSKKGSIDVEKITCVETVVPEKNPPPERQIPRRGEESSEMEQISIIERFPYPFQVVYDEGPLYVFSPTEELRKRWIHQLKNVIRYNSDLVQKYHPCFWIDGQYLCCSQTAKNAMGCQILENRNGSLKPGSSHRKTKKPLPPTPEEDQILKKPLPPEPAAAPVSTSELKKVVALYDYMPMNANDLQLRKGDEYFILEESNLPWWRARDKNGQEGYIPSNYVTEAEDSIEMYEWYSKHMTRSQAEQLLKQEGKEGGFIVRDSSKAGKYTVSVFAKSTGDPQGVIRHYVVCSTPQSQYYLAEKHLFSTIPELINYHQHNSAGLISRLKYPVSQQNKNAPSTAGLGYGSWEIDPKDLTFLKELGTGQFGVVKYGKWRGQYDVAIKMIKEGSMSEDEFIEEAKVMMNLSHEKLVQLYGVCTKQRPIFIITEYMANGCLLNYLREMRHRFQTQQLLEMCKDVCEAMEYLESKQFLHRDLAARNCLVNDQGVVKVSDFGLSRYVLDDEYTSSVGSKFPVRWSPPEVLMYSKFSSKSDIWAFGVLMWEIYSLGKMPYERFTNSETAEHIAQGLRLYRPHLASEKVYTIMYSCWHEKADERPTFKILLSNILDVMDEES
Sequence of BTK(C481S) (Q06187 whole entry C481S): as the sequence (Q06187 whole entry) above, with C481S counted along it

| IC50 [5] | IC50 [6] | SMILES | TGI [1] | TGI [2] | IC50 [3] | IC50 [4] |
| --- | --- | --- | --- | --- | --- | --- |
|  |  | C=CC(=O)N1CCC[C@@H](n2nc(-c3ccc(Oc4ccccc4)cc3)c3c(N)ncnc32)C1 [Ibrutinib, ibrutinib, reference compound] | 90% | 94% | 1.7 nM | 0.4 nM |
| 1 to 10 nM | 0.1 to 1 nM | CC#CC(=O)NC12CCC(c3nc(-c4ccc(C(=O)Nc5cc(C#N)ccn5)cc4)c4c(N)nccn34)(CC1)C2 [Compound A-7-5, 4-(8-amino-3-(4-(but-2-ynamido)bicyclo[2.2.1]heptan-1-yl)imidazo[1,5-a]pyrazin-1-yl)-N-(4-cyanopyridin-2-yl)benzamide] |  |  |  |  |
| 1 to 10 nM | 1 to 10 nM | COCCC(=O)NC12CCC(n3cc(-c4ccc(C(=O)Nc5cc(C(F)(F)F)ccn5)cc4)c4c(N)ncnc43)(CC1)C2 [Compound B-6-3, 4-(4-amino-7-(4-(3-methoxypropanamido)bicyclo[2.2.1]heptan-1-yl)-7H-pyrrolo[2,3-d]pyrimidin-5-yl)-N-(4-(trifluoromethyl)pyridin-2-yl)benzamide] |  |  |  |  |
